According to the RepoRT retention time repository:

Assay: HILIC, Waters ACQUITY UPLC BEH HILIC, 150 × 2.1 mm, 1.7 µm, 40 °C, 0.6 mL/min, estimated dead time 0.55 min; A: water + 0.1% formic acid + 20 mM ammonium formate, pH 3.5; B: acetonitrile + 0.1% formic acid, pH 3; gradient (min/%B) 0/95 0.1/95 4.6/80 5.5/50 7.0/50 7.1/95 7.2/95 7.3/95 7.4/95 7.5/95 7.6/95 7.7/95 7.8/95 12.50/95 12.65/95
Conditions: stereoisomer not certain

Which LC retention time does the source give for CN1C(=O)CCC1c1cccnc1 (centres undefined) [Cotinine] here?
The LC retention time was 1.4 min.

With CN1CCCC1c1cccnc1 (centres undefined) [Nicotine] as the compound, how does the LC retention time read?
Its LC retention time is 4.14 min.

With CCCCCC(=O)OC(CC(=O)[O-])C[N+](C)(C)C (centres undefined) [Hexanoylcarnitine CAR(6:0)] as the compound, how does the LC retention time read?
The LC retention time was 4.34 min.

With C[N+](C)(C)CC(=O)[O-] [Betaine] as the compound, how does the LC retention time read?
Its LC retention time is 4.78 min.

For CC(=O)C[N+](C)(C)C [Trimethylaminoacetone], which LC retention time is on record?
Its LC retention time is 3.51 min.

For O=C1CCC(c2cccnc2)N1 (centres undefined) [Norcotinine], which LC retention time is on record?
The LC retention time was 1.6 min.

Which LC retention time does the source give for NC(CCCCn1c(C=O)ccc1CO)C(=O)O (centres undefined) [Pyralline] here?
The LC retention time was 4.28 min.

With C[N+](C)(C)CCOP(=O)([O-])OCC(O)CO (centres undefined) [a-Glycerophosphocholine] as the compound, how does the LC retention time read?
Its LC retention time is 6.02 min.

For NC(=O)NCCCC(N)C(=O)O (centres undefined) [Citrulline], which LC retention time is on record?
Its LC retention time is 5.74 min.

With C[N+](C)(C)CC(O)CC(=O)[O-] (centres undefined) [Carnitine] as the compound, how does the LC retention time read?
Its LC retention time is 5.32 min.

For Nc1ncnc2c1ncn2C1OC(CO)C(O)C1O (centres undefined) [Adenosine], which LC retention time is on record?
The LC retention time was 1.75 min.

With OCC1OC(OC2(CO)OC(CO)C(O)C2O)C(O)C(O)C1O (centres undefined) [Sucrose] as the compound, how does the LC retention time read?
Its LC retention time is 2.27 min.

With CCCCC(=O)OC(CC(=O)[O-])C[N+](C)(C)C (centres undefined) [Valerylcarnitine] as the compound, how does the LC retention time read?
Its LC retention time is 4.39 min.

With CN(C)c1nc2c(ncn2C2OC(CO)C(O)C2O)c(=O)[nH]1 (centres undefined) [N2,N2-Dimethylguanosine] as the compound, how does the LC retention time read?
The LC retention time was 1.9 min.

With CC(C)C(=O)OC(CC(=O)[O-])C[N+](C)(C)C (centres undefined) [Isobutyrylcarnitine] as the compound, how does the LC retention time read?
Its LC retention time is 4.69 min.

For Cn1cncc1CC(NC(=O)CCN)C(=O)O (centres undefined) [Anserine], which LC retention time is on record?
The LC retention time was 6.1 min.

Which LC retention time does the source give for CCCCCCCCCCCC(=O)OC(CC(=O)[O-])C[N+](C)(C)C (centres undefined) [Lauroylcarnitine CAR(12:0)] here?
Its LC retention time is 3.97 min.

For C[N+](C)(C)C(Cc1c[nH]c2ccccc12)C(=O)[O-] (centres undefined) [Tryptophan betaine], which LC retention time is on record?
Its LC retention time is 3.91 min.

Which LC retention time does the source give for CC(=O)N[C@@H]1C(O)O[C@H](CO)[C@@H](O)[C@@H]1O (stereo partly drawn) [N-Acetyl-D-mannosamine] here?
Its LC retention time is 1.81 min.

For CC(O)CC(=O)OC(CC(=O)[O-])C[N+](C)(C)C (centres undefined) [3-Hydroxybutyrylcarnitine CAR(4:0-OH)], which LC retention time is on record?
Its LC retention time is 5.4 min.

For CNc1ncnc2c1ncn2C1OC(CO)C(O)C1O (centres undefined) [N6-Methyladenosine], which LC retention time is on record?
Its LC retention time is 1.43 min.

For O=C(O)CCc1cnc[nH]1 [Imidazolepropionic acid], which LC retention time is on record?
Its LC retention time is 3.76 min.

For NC(=O)CCC(N)C(=O)O (centres undefined) [Glutamine], which LC retention time is on record?
Its LC retention time is 5.06 min.

Which LC retention time does the source give for CC=C(C)C(=O)OC(CC(=O)[O-])C[N+](C)(C)C (centres undefined) [Tiglylcarnitine CAR(5:1)] here?
The LC retention time was 4.54 min.

With Cn1cnc(CC(N)C(=O)O)c1 (centres undefined) [1-Methylhistidine] as the compound, how does the LC retention time read?
The LC retention time was 6.35 min.

For CC12CCC(=O)C=C1CCC1C2C(O)CC2(C)C1CCC2(O)C(=O)CO (centres undefined) [Cortisol], which LC retention time is on record?
Its LC retention time is 0.71 min.

With C[N+](C)(C)CC(CC(=O)[O-])OC(=O)c1ccccc1 (centres undefined) [Benzoylcarnitine] as the compound, how does the LC retention time read?
Its LC retention time is 4.45 min.

Which LC retention time does the source give for CC(CCC(=O)NCCS(=O)(=O)O)C1CCC2C3C(O)CC4CC(O)CCC4(C)C3CCC12C (centres undefined) [Tauroursodeoxycholic acid] here?
Its LC retention time is 1.75 min.

With NC(Cc1c[nH]c2ccccc12)C(=O)O (centres undefined) [Tryptophan] as the compound, how does the LC retention time read?
The LC retention time was 3.82 min.

For Nc1nc2ncc(C(O)C(O)CO)nc2c(=O)[nH]1 (centres undefined) [Neopterin], which LC retention time is on record?
The LC retention time was 2.32 min.

For C[N+](C)(C)[O-] [Trimethylamine N-oxide], which LC retention time is on record?
Its LC retention time is 4.18 min.

Which LC retention time does the source give for CC(C)CC(=O)OC(CC(=O)[O-])C[N+](C)(C)C (centres undefined) [Isovalerylcarnitine] here?
The LC retention time was 4.39 min.

For CN1CCCC1C(=O)O (centres undefined) [N-methylproline], which LC retention time is on record?
The LC retention time was 4.48 min.

With CSCCC(N)C(=O)O (centres undefined) [Methionine] as the compound, how does the LC retention time read?
The LC retention time was 4.11 min.

With O=c1[nH]c(=O)c2[nH]cnc2[nH]1 [Xanthine] as the compound, how does the LC retention time read?
Its LC retention time is 1.15 min.

Which LC retention time does the source give for CC(=O)Nc1ccc(O)cc1 [Acetaminophen] here?
Its LC retention time is 0.71 min.

With NCCC(=O)NC(Cc1cnc[nH]1)C(=O)O (centres undefined) [Carnosine] as the compound, how does the LC retention time read?
Its LC retention time is 6.01 min.

Which LC retention time does the source give for Cn1cncc1CC(N)C(=O)O (centres undefined) [3-Methylhistidine] here?
The LC retention time was 6.09 min.

Which LC retention time does the source give for Cn1cnc2nc(N)[nH]c(=O)c21 [7-Methylguanine] here?
Its LC retention time is 2.19 min.
